Assays:
human ERβ = biological target: T1, human ERβ (Homo sapiens, UniProt Q92731); assay: Competition with [3H]-17β-estradiol for binding to ERβ ligand binding domain (E. coli lysate); details: 2 nM [3H]-17β-estradiol, 5-15 hours at room temperature; concentration that decreases total 17β-estradiol binding by 50%
T1 construct: made in house; host or cells: E. coli
Method: (§1) Representative examples of the invention were evaluated for their ability to compete with 17β-estradiol for both ERα and ERβ. This test procedure provides the methodology for one to determine whether a particular compound binds to the estrogen receptor (and is therefore “estrogenic”) and whether there is selectivity for ERα or ERβ. […] 17β-estradiol is included as a standard reference for comparison. The procedure used is briefly described below. A crude lysate of E. coli expressing the estrogen receptor ligand binding domains (D, E, & F) of human ERα or ERβ was prepared. Both receptors and compounds were diluted in 1× Dulbecco's PBS (DPBS) supplemented with 1 mM EDTA. Using a high binding masked microtiter plate, 100 uL of receptor (1 uG/well) was combined with 2 nM [^3H]-17β-estradiol and various concentrations of compound. After between 5 and 15 hours at room temperature, the plates were washed with DPBS/1 mM EDTA and bound radioactivity determined by liquid scintillation counting.

human ERα = biological target: T2, human ERα (Homo sapiens, UniProt P03372); assay: Competition with [3H]-17β-estradiol for binding to ERα ligand binding domain (E. coli lysate); details: 2 nM [3H]-17β-estradiol, 5-15 hours at room temperature; concentration that decreases total 17β-estradiol binding by 50%
T2 construct: made in house; host or cells: E. coli
T2 sequence (P03372 311-547 limits assumed): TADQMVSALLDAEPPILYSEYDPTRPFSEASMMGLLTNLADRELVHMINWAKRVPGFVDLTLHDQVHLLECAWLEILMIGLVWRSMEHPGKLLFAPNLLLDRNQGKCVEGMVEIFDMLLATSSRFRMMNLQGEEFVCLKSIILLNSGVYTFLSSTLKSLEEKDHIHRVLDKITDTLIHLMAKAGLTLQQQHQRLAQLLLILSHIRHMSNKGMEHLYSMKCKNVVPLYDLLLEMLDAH
Method: as §1

T1 sequence (Q92731 264-498 limits assumed): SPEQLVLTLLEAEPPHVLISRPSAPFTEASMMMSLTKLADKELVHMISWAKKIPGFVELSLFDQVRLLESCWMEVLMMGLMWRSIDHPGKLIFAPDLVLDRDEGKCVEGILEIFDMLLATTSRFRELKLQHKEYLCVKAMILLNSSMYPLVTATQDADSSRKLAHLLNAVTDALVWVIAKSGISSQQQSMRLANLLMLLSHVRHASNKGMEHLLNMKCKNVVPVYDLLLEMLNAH

Row | Structure (SMILES) | melting point [°C] | IC50 (human ERβ) [nM] | IC50 (human ERα) [nM]
1 | ON=Cc1ccc(-c2ccc(O)cc2)c2ccccc12 [Example 3, 4-(4-Hydroxyphenyl)-1-naphthaldehyde oxime] | 200 to 200.5 | – | –
2 | ON=Cc1ccc(-c2ccc(O)cc2)c2ccsc12 [Example 12, 4-(4-Hydroxyphenyl)-1-benzothiophene-7-carbaldehyde oxime] | 229.5 to 230.5 | – | –
3 | ON=Cc1ccc(-c2ccc(O)cc2)c2sccc12 [Example 19, 7-(4-Hydroxyphenyl)-1-benzothiophene-4-carbaldehyde oxime] | 230 to 231 | – | –
4 | ON=Cc1ccc(-c2ccc(O)cc2)c2occc12 [Example 25, 7-(4-Hydroxyphenyl)-1-benzofuran-4-carbaldehyde oxime] | 216 to 217 | – | –
5 | ON=Cc1cc(-c2ccc(O)cc2)cc2ccoc12 [Example 37, 5-(4-Hydroxyphenyl)-1-benzofuran-7-carbaldehyde oxime] | – | 326 | 3220

Next, values leading:

Row | melting point [°C] | IC50 (human ERβ) [nM] | IC50 (human ERα) [nM] | Structure (SMILES)
6 | 187 to 188 | – | – | ON=Cc1ccc(-c2ccc(O)c(F)c2)c2ccccc12 [Example 6, 4-(3-Fluoro-4-hydroxyphenyl)-naphthalene-1-carbaldehyde oxime]
7 | 219 to 220 | – | – | ON=Cc1ccc(-c2ccc(O)cc2)c2ccoc12 [Example 31, 4-(4-Hydroxyphenyl)-benzofuran-7-carbaldehyde oxime]
8 | 192 to 194 | 2210 | > 5000 | ON=Cc1cc(-c2ccc(O)cc2)c2occc2c1 [Example 43, 7-(4-Hydroxyphenyl)-benzofuran-5-carbaldehyde oxime]

— patent publication US7157491B2, “Aryl-carbaldehyde oxime derivatives and their use as estrogenic agents” (Wyeth, priority 2003, dated 2007)
